Data taken from patent US20150258059A1, “ANTIMICROBIAL AND RADIOPROTECTIVE COMPOUNDS” (BioDiem, Ltd, priority 2001, published 2015).
Converted amounts (≈) assume the structure as drawn. Like-named read-outs stand apart in the source and are kept apart here.

Assays:
Acinetobacter B-677 = assay: Sensitivity of strains: suppression of growth; format: cell-based; conditions: Compound (1) 1.0%; antibiotics disc method
Acinetobacter B-676 = assay: Sensitivity of strains: suppression of growth; format: cell-based; conditions: Compound (1) 1.0%; antibiotics disc method
[1] = system: Staphylococcus aureus B-674; assay: Sensitivity of strains: suppression of growth; format: cell-based; conditions: Compound (1) 1.0%; antibiotics disc method
[2] = system: Pseudomonas aeruginosa B-601; assay: Sensitivity of strains: suppression of growth; format: cell-based; conditions: Compound (1) 1.0%; antibiotics disc method
[3] = system: Enterobacter aerogenes B-687; assay: Sensitivity of strains: suppression of growth; format: cell-based; conditions: Compound (1) 1.0%; antibiotics disc method
[4] = system: Staphylococci epidermidis D-513; assay: Sensitivity of strains: suppression of growth; format: cell-based; conditions: Compound (1) 1.0%; antibiotics disc method
Escherichia coli M-17 = assay: Sensitivity of strains: suppression of growth; format: cell-based; conditions: Compound (1) 1.0%; antibiotics disc method
[5] = system: β-hemolytic streptococcus B-624; assay: Sensitivity of strains: suppression of growth; format: cell-based; conditions: Compound (1) 1.0%; antibiotics disc method
[6] = system: Yersinia pseudotuberculosis; format: cell-based; conditions: Compound (1) 1.0%; antibiotics disc method
[7] = system: Staphylococcus aureus M-12159; assay: Sensitivity of strains: suppression of growth; format: cell-based; conditions: Compound (1) 1.0%; antibiotics disc method
[8] = system: Salmonella paratyphi M-16469; assay: Sensitivity of strains: suppression of growth; format: cell-based; conditions: Compound (1) 1.0%; antibiotics disc method
[9] = system: Staphylococcus epidermidis BK-30; assay: Sensitivity of strains: suppression of growth; format: cell-based; conditions: Compound (1) 1.0%; antibiotics disc method
Escherichia coli B-683 = assay: Sensitivity of strains: suppression of growth; format: cell-based; conditions: Compound (1) 1.0%; antibiotics disc method
[10] = system: Corynebacterium diphtheriae B-670; assay: Sensitivity of strains: suppression of growth; format: cell-based; conditions: Compound (1) 1.0%; antibiotics disc method
[11] = system: Staphylococcus aureus M-209; assay: Sensitivity of strains: suppression of growth; format: cell-based; conditions: Compound (1) 1.0%; antibiotics disc method
Acinetobacter B-681 = assay: Sensitivity of strains: suppression of growth; format: cell-based; conditions: Compound (1) 1.0%; antibiotics disc method
[12] = system: Klebsiella pneumoniae M-248; assay: Sensitivity of strains: suppression of growth; format: cell-based; conditions: Compound (1) 1.0%; antibiotics disc method
[13] = system: Staphylococcus aureus B-685; assay: Sensitivity of strains: suppression of growth; format: cell-based; conditions: Compound (1) 1.0%; antibiotics disc method
[14] = system: Neisseria meningitidis M-A72; assay: Sensitivity of strains: suppression of growth; format: cell-based; conditions: Compound (1) 1.0%; antibiotics disc method
Mycobact tub. H.37RV = assay: Anti-TB effect, serial double dilution in liquid medium; format: cell-based, M tuberculosis; conditions: 10-14 days incubation at 37° C.; read-out: Minimal Inhibitory Concentration
[15] = system: Klebsiella pneumoniae M-A21; assay: Sensitivity of strains: suppression of growth; format: cell-based; conditions: Compound (1) 1.0%; antibiotics disc method
[16] = system: Conditional pathogenic enterobacteria gram-negative aerobic bacilli; format: cell-based; further: key: + sensitive strains; + moderately sensitive strains; − stable strains
Alkaligenes sp. B-667 = assay: Sensitivity of strains: suppression of growth; format: cell-based; conditions: Compound (1) 1.0%; antibiotics disc method
[17] = system: γ-hemolytic streptococcus B-672; assay: Sensitivity of strains: suppression of growth; format: cell-based; conditions: Compound (1) 1.0%; antibiotics disc method
[18] = system: Citrobacter diversus B-678; assay: Sensitivity of strains: suppression of growth; format: cell-based; conditions: Compound (1) 1.0%; antibiotics disc method
Escherichia coli B-65 = assay: Sensitivity of strains: suppression of growth; format: cell-based; conditions: Compound (1) 1.0%; antibiotics disc method
Alkaligenes sp. B-689 = assay: Sensitivity of strains: suppression of growth; format: cell-based; conditions: Compound (1) 1.0%; antibiotics disc method
[19] = system: Neisseria meningitidis M-6231; assay: Sensitivity of strains: suppression of growth; format: cell-based; conditions: Compound (1) 1.0%; antibiotics disc method
[20] = system: Enterobacter aerogenes B-679; assay: Sensitivity of strains: suppression of growth; format: cell-based; conditions: Compound (1) 1.0%; antibiotics disc method
[21] = system: Pseudomonas aeruginosa ATCC 27853; assay: NCCLS broth microdilution MIC/MBC; format: cell-based; conditions: for MIC: Pseudomonas aeruginosa, ATCC27853, read-out: MIC
[22] = system: Enterococcus faecalis ATCC 29212; assay: NCCLS broth microdilution MIC/MBC; format: cell-based; conditions: for MIC: Enterococcus faecalis, ATCC29212
S. aureus = assay: Antibacterial activity in the presence of blood, macrodilution; format: cell-based
Haemophilus influenzae = assay: NCCLS broth microdilution MIC/MBC; format: cell-based; conditions: Table 9, 35° C., 24 hours
[23] = system: Escherichia coli ATCC 25922; assay: NCCLS broth microdilution MIC/MBC; format: cell-based; conditions: for MIC: Escherichia coli, ATCC25922, read-out: MIC
[24] = system: Staphylococcus aureus ATCC 29213; assay: NCCLS broth microdilution MIC/MBC; format: cell-based; conditions: for MIC: Staphylococcus aureus, ATCC29213, read-out: MIC

Compound	Suppression of Growth (+/−) (Acinetobacter B-677)	Suppression of Growth (+/−) (Acinetobacter B-676)	Suppression of Growth (+/−) [3]	Suppression of Growth (+/−) [4]	Suppression of Growth (+/−) [5]	Suppression of Growth (+/−) [6]	Suppression of Growth (+/−) [7]	Suppression of Growth (+/−) [9]	Suppression of Growth (+/−) [10]	Suppression of Growth (+/−) [11]	Suppression of Growth (+/−) (Acinetobacter B-681)	Suppression of Growth (+/−) [12]	Suppression of Growth (+/−) [13]	Suppression of Growth (+/−) [14]	MIC (Mycobact tub. H.37RV) [µg/mL]	Suppression of Growth (+/−) [15]	Suppression of Growth (+/−) [16]	Suppression of Growth (+/−) (Alkaligenes sp. B-667)	Suppression of Growth (+/−) [17]	Suppression of Growth (+/−) [19]	also measured
CO[C@H]1/C=C/O[C@@]2(C)Oc3c(C)c(O)c4c(O)c(c(/C=N/N5CCN(C)CC5)c(O)c4c3C2=O)NC(=O)/C(C)=C\C=C\[C@H](C)[C@H](O)[C@@H](C)[C@@H](O)[C@@H](C)[C@H](OC(C)=O)[C@@H]1C [Antibiotic 10, rifampicin]	+	+	−	+	+	−	+	+	+	+	+	−	+	−	0.01 to 0.02 (≈ 0.0122 to 0.0243 µM)	−	−	+	−	−	Suppression of Growth (+/−) [1]: −; Suppression of Growth (+/−) [2]: −; Suppression of Growth (+/−) (Escherichia coli M-17): −; Suppression of Growth (+/−) [8]: −; Suppression of Growth (+/−) (Escherichia coli B-683): −; Suppression of Growth (+/−) [18]: −; Suppression of Growth (+/−) (Escherichia coli B-65): −; Suppression of Growth (+/−) (Alkaligenes sp. B-689): −; Suppression of Growth (+/−) [20]: −
[H]/N=C(/N)N[C@H]1[C@H](O)[C@@H](O)[C@H](O[C@@H]2O[C@@H](C)[C@](O)(C=O)[C@H]2O[C@@H]2O[C@@H](CO)[C@H](O)[C@@H](O)[C@@H]2NC)[C@@H](N/C(N)=N\[H])[C@@H]1O [Antibiotic 12, streptomycin]	−	−	−	−	−	−	+	−	−	+	−	−	+	−	0.5 (≈ 0.86 µM)	−	−	−	−	−	Suppression of Growth (+/−) [20]: −
O=C(O)c1cn(C2CC2)c2cc(N3CCNCC3)c(F)cc2c1=O [Ciprofloxacin]																					MIC ([21]; Table 9, 35° C., 24 hours): 0.25 µg/mL (≈ 0.754 µM); MIC ([21]; Table 17, 2 or 3 replicates): 0.25 µg/mL (≈ 0.754 µM); MMC ([21]; Table 9, 35° C., 24 hours): 0.25 µg/mL; MMC ([21]; Table 17, 2 or 3 replicates): 0.25 µg/mL; MIC ([22]; Table 9, 35° C., 24 hours): 0.5 µg/mL (≈ 1.51 µM); MIC ([22]; Table 17, 2 or 3 replicates): 0.5 µg/mL (≈ 1.51 µM); MMC ([22]; Table 9, 35° C., 24 hours): 0.5 µg/mL; MMC ([22]; Table 17, 2 or 3 replicates): 0.5 µg/mL; decrease in activity (S. aureus; in the presence of 10% plasma): 4 fold; decrease in activity (S. aureus; in the presence of whole blood): 2 fold; MIC (Haemophilus influenzae; Haemophilus influenzae, read-out: MIC): 0.006 µg/mL (≈ 0.0181 µM); MMC (Haemophilus influenzae): 0.006 µg/mL; MIC ([23]; Table 9, 35° C., 24 hours): 0.02 µg/mL (≈ 0.0604 µM); MIC ([23]; Table 17, 2 or 3 replicates): 0.02 µg/mL (≈ 0.0604 µM); MMC ([23]; Table 9, 35° C., 24 hours): 0.02 µg/mL; MMC ([23]; Table 17, 2 or 3 replicates): 0.02 µg/mL; MIC ([24]; Table 9, 35° C., 24 hours): 0.25 µg/mL (≈ 0.754 µM); MIC ([24]; Table 17, 2 or 3 replicates): 0.25 µg/mL (≈ 0.754 µM); MMC ([24]; Table 9, 35° C., 24 hours): 0.25 µg/mL; MMC ([24]; Table 17, 2 or 3 replicates): 0.25 µg/mL
